Data on seven substances can be found in patent publication US7776823B2, “Human cathelicidin antimicrobial peptides” (priority 2003, dated 2010).

Ends that are not written are not given here.

The subject of data set [1] is Staphylococcus aureus. The data set can be described thus: S. aureus growth inhibition (turbidity OD600) with or without carbonate. It is filed as cell-based. The settings on record: for Susceptibility of S. aureus: 16 uM peptide; for Effect of NaHCO3 on minimal inhibitory concentration (MIC) against Staph aureus: 20% TSB, 1 mM NaH2PO4, 50 mM NaHCO3, pH 7.4. Here is the method:
Carbonate was identified as the antimicrobial enhancing factor in mammalian tissue culture media via serial deletion of Minimal Essential Media (MEM) components. Staphylococcus aureus was cultured in 20% Tryptic Soy Broth (TSB), 10% Fetal Bovine Serum (FBS) and 70% of various media or media components with, or without, 32 μM LL-37 to assess which components could increase antimicrobial activity. MEM buffers are 2200 mg/L NaHCO3, 140 mg/L NaH2PO4 and 6800 mg/L NaCl. MEM salts are 200 mg/L CaCl2, 400 mg/L KCl, 98 mg/L MgSO4. All solutions were adjusted to pH 7.4. Bacterial growth was measured as the change in turbidity at OD600 and percent inhibition was determined by comparing bacterial growth in the presence of peptide to that in the absence of peptide. […]
Inhibition of Staph aureus growth in the presence of various concentrations of human (LL-37), murine (CRAMP) and porcine (PR-39). Cathelicidin antimicrobial peptides was measured in 20% TSB, 1 mM NaH2PO4, with, or without, 50 mM NaHCO3 at pH 7.4. […]

Data set [2] concerns antigen presentation. The data set can be described thus: Antigen presentation in vitro. It is filed as cell-based.
Data set [3] relates to Group B Strep (GBS). The data set can be described thus: Group B Strep susceptibility to CRAMP. The data set is classed as cell-based. The settings on record: 16 uM peptide; without NaHCO3.
In data set [4] the test system is E. coli. The data set can be described thus: E. coli susceptibility to CRAMP with or without NaHCO3. It is filed as cell-based. Conditions: 16 uM peptide.
Data set [5] concerns Salmonella. The data set can be described thus: Salmonella susceptibility to CRAMP. It is filed as cell-based. The settings on record: 16 uM peptide; without NaHCO3.
Data set [6] relates to wild-type S. aureus (clinical isolate). The data set can be described thus: Radial diffusion assay against wild-type S. aureus. The data set is classed as cell-based, Staphylococcus aureus. The settings on record: for Action against wild-type S. aureus compared to LL-37: synthetic peptides. Here is the method: (§1) Antimicrobial assays. For screening of antimicrobial activity of HPLC fractions, radial diffusion assay was used. Lyophilized HPLC fractions were dissolved in DW (GibcoBRL, Grand Island, N.Y.), and tested against Staphylococcus aureus mprF. Thin plates (1 mm) of 1% agarose in 0.5% tryptone containing approximately […] of S. aureus mprF were used. 1 mm wells were punched in the plates and […] of samples dissolved in tissue culture grade sterile water were loaded in each well.
(§2) As a positive control, synthetic LL-37 was applied to separate wells. After incubation at 37° C. overnight, the inhibition zones were recorded by CCD camera and diameters measured. To evaluate antimicrobial activity against wild-type S. aureus (clinical isolate), and enteroinvasive E. coli 029, both radial diffusion and solution killing assays were done. Radial diffusion assays were done as described for S. aureus mprF. Solution killing was done in 10% TSB in 10 mM PB (TSB=30 gm/L Tryptic Soy Broth, Sigma, St Louis Mo.; 20×PB=27.6 g/L NaH2PO4-H2O, 53.65 g/L Na2HPO4-7H2O, pH 7.4). Bacteria in log-phase growth were suspended to 1×10^6 cells/ml, peptide added and incubated at 37° C. for 2 hr. Bacteria were then plated on TSB agar (TSB, Bactoagar 13 g/L, Becton Dickinson, Sparks Md.) for direct colony count and determination of CFU.

In data set [7] the test system is Group A Streptococcus (NZ131). The data set is classed as cell-based. Here is the method:
as §2
(§3) Activity against Group A Streptococcus (NZ131) was done only in solution assay as described. To evaluate antimicrobial activity in high salt conditions, solution assay was done in 10% TSB/10 mM PBS with several salt concentrations (concentration of NaCl; 10, 50, 100, 150, 300, 500 mM). Action against the C. albicans was determined in Dixon medium (0.6% Peptone, 4% Malt Extract, 1% Glucose, 0.1% Ox Bile, 1% Tween-80) in sterile 96-well microtiter plates (Corning Inc., Corning, N.Y.) at a final volume of […]. The assay mixtures contained 1-2.5×10^4 […] freshly grown Candida, 20% Dixon medium, 0.6 mM phosphate buffer pH 7, and […] chloramphenicol. Microtiter plates were incubated at 37° C. for 24 h with peptides, then plated on Dixon agar to determine the MFC (minimum fungicide concentration).

Data set [8] concerns enteroinvasive E. coli 029. The data set can be described thus: Radial diffusion assay against E. coli 029. The data set is classed as cell-based. The settings on record: for Action against E. coli compared to LL-37: synthetic peptides. Here is the method: as §1, §2
The subject of data set [9] is C. albicans ATCC 14053. The data set can be described thus: Liquid assay against C. albicans (minimum fungicide concentration). It is filed as cell-based, Candida albicans. The settings on record: for Fungicidal activity against Candida albicans compared to LL-37: synthetic peptides. Here is the method: as §3
The subject of data set [10] is Staphylococcus aureus mprF. The data set can be described thus: Radial diffusion assay against S. aureus mprF. It is filed as cell-based. Here is the method: as §1, §2
The test system of data set [11] is human erythrocytes. The data set can be described thus: Hemolysis assay on human whole blood. The data set is classed as cell-based. Here is the method:
Hemolysis Assay. Hemolytic activity was determined on human whole blood. Freshly obtained whole blood was washed 3× in PBS and resuspended in PBS at its original volume containing peptides at indicated concentrations. Samples were incubated at 37° C. for 1.5 to 3 h, and hemolysis determined by centrifuging at 300 g and measurement of the absorbance of the supernatant at 578 nm. Hemolytic activity of each peptide was expressed as the percentage of total hemoglobin released compared to that released by incubating with 0.1% Triton X-100.

In data set [12] the test system is S. aureus. The data set can be described thus: Release of cytoplasmic beta-galactosidase (membrane disruption). Conditions: with carbonate versus without. The data set is classed as cell-based. An excerpt: Release of cytoplasmic expressed beta-galactosidase was measure from bacteria with and without the addition of NaHCO3.

On to CRAMP, for which the entries for the “Susceptibility of S. aureus” value in data set [1] (with 50 mM NaHCO3) and in [1] (without 50 mM NaHCO3) were “susceptible” and “resistant”, respectively. In addition, the “Effect of NaHCO3 on minimal inhibitory concentration (MIC) against Staph aureus” value in [1] is listed as “greatly reduced”. Also, the “Antigen presentation in vitro” value in data set [2] is “inhibits antigen presentation”. Besides, the “Susceptibility of Group B Strep (GBS)” value in [3] was “susceptible”. Moreover, the “Susceptibility of E. coli” value in data set [4] (with 50 mM NaHCO3) was “susceptible”; in [4] (without 50 mM NaHCO3) it was “resistant”. In addition, in data set [5], the “Susceptibility of Salmonella” value is “susceptible”.

As for “RKSKEKIGKEFKRIVQRIKDFLRNLVPRTES (listed as Homo sapiens) [RK-31, cathelicidin peptide generated from LL-37]”, in data set [6], the “Radial Diffusion Assay minimal inhibitory concentration (MIC), S. aureus (wt)” value amounted to 16 μm and the “Action against wild-type S. aureus compared to LL-37” value was “greatly increased action”. Also, the “Liquid Assay minimal concentration required to kill GAS (NZ131)” value in data set [7] came to 8 μm. For the same substance, in data set [8], the “Radial Diffusion Assay minimal inhibitory concentration (MIC), E. coli (029)” value is 8 μm and the “Action against E. coli compared to LL-37” value is “greatly increased action”. Further, in data set [9], the “Liquid Assay minimal concentration required to kill C. albicans ATCC 14053” value is recorded as 4 μm and the “Fungicidal activity against Candida albicans compared to LL-37” value (“Fungicidal activity … compared to LL-37” for short) is “increased fungicidal activity”. Besides, the “Radial Diffusion Assay minimal inhibitory concentration (MIC), S. aurus MprF” value in data set [10] is given as 8 μm. Further, in data set [11], the “% hemolysis” value is given as 6%.

For the substance “KRIVQRIKDFLRNLVPRTES (listed as Homo sapiens) [KR-20, 20 amino acid cathelicidin derivative]”, in data set [6], the “Radial Diffusion Assay minimal inhibitory concentration (MIC), S. aureus (wt)” value was above 64 μm. In data set [7], the “Liquid Assay minimal concentration required to kill GAS (NZ131)” value was found to be 4 μm. In addition, the “Radial Diffusion Assay minimal inhibitory concentration (MIC), E. coli (029)” value in data set [8] is recorded as above 64 μm. Moreover, in [9], the “Liquid Assay minimal concentration required to kill C. albicans ATCC 14053” value is 10 μm and the “Fungicidal activity … compared to LL-37” value is “increased fungicidal activity”. Further, the “Radial Diffusion Assay minimal inhibitory concentration (MIC), S. aurus MprF” value in data set [10] is listed as 16 μm. In addition, the “% hemolysis” value in data set [11] was 0%.

For the substance KSKEKIGKEFKRIVQRIKDFLRNLVPRTES [KS-30], in [6], the “Radial Diffusion Assay minimal inhibitory concentration (MIC), S. aureus (wt)” value is listed as 16 μm and the “Action against wild-type S. aureus compared to LL-37” value is given as “greatly increased action”. For the same substance, the “Liquid Assay minimal concentration required to kill GAS (NZ131)” value in [7] is reported as 4 μm. In data set [8], the “Radial Diffusion Assay minimal inhibitory concentration (MIC), E. coli (029)” value worked out at 8 μm and the “Action against E. coli compared to LL-37” value was “greatly increased action”. In data set [9], the “Liquid Assay minimal concentration required to kill C. albicans ATCC 14053” value is given as 2 μm and the “Fungicidal activity … compared to LL-37” value is “increased fungicidal activity”. The “Radial Diffusion Assay minimal inhibitory concentration (MIC), S. aurus MprF” value in data set [10] came out at 8 μm. Further, in [11], the “% hemolysis” value is given as “.23%”.

As for “SSLLEKGLDGAKKAVGGLGKLGKDAVEDLESVGKGAVHDVKDVLDSV (listed as Homo sapiens) [DCD, dermcidin antimicrobial peptide of human sweat, reference compound]”, the “Radial Diffusion Assay minimal inhibitory concentration (MIC), S. aureus (wt)” value in data set [6] is above 64 μm. Further, the “Liquid Assay minimal concentration required to kill GAS (NZ131)” value in [7] was above 64 μm. Further, the “Radial Diffusion Assay minimal inhibitory concentration (MIC), E. coli (029)” value in data set [8] is listed as above 64 μm. Moreover, the “Liquid Assay minimal concentration required to kill C. albicans ATCC 14053” value in data set [9] was above 32 μm. Also, the “Radial Diffusion Assay minimal inhibitory concentration (MIC), S. aurus MprF” value in data set [10] is listed as above 64 μm.

Turning to Polymyxin B, the “Leakage of cytoplasmic protein (beta-galactosidase) from S. aureus” value in [12] is listed as “greater leakage”.

Turning to “PR-39: porcine cathelicidin antimicrobial peptide (RRRPRPPYLPRPRPPPFFPPRLPPRIPPGFPPRFPPRFP; UniProt P80054 131-169, looked up)”, the “Effect of NaHCO3 on minimal inhibitory concentration (MIC) against Staph aureus” value in data set [1] was “greatly reduced”.
